Experimental data published in the supplement of paper PMC10307832.

Assays:
Test in all cases: relative viability (nuclei count vs DMSO), 5 days (fraction); higher = more cells survive
[1] = compound: CN(C)CC1=CC(=CC=C1)N=C(C2=CC=CC=C2)C3=C(NC4=C3C=CC(=C4)C(=O)N(C)C)O + NC(=O)Nc1cc(-c2cccc(F)c2)sc1C(=O)N[C@H]1CCCNC1 [AZD7762] (partner 0.2 µM)
Summary of the method: (§1)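 Lung cancer cell lines, seeded in 1536-well plates, were treated the following day by pin tool with a single drug or with five library-drug doses (not always all listed) in √10 steps on top of a fixed anchor-drug dose. Cells were fixed and nuclei stained in one step after 5 days, and nuclei were counted. Relative viability is the nuclei count for treated wells divided by that for vehicle wells, reported as medians of duplicate plates.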

[2] = compound: CN(C)CC1=CC(=CC=C1)N=C(C2=CC=CC=C2)C3=C(NC4=C3C=CC(=C4)C(=O)N(C)C)O + N=C(N)NC(=N)NCCc1ccccc1 [Phenformin] (partner 250 µM)
Summary of the method: as §1

[3] = compound: CN(C)CC1=CC(=CC=C1)N=C(C2=CC=CC=C2)C3=C(NC4=C3C=CC(=C4)C(=O)N(C)C)O + CS(=O)(=O)N1CCN(Cc2cc3nc(-c4cccc5[nH]ncc45)nc(N4CCOCC4)c3s2)CC1 [Pictilisib] (partner 1 µM)
Summary of the method: as §1

[4] = compound: CN(C)CC1=CC(=CC=C1)N=C(C2=CC=CC=C2)C3=C(NC4=C3C=CC(=C4)C(=O)N(C)C)O + Cc1nc(NC(=O)N2CCC[C@H]2C(N)=O)sc1-c1ccnc(C(C)(C)C(F)(F)F)c1 [Alpelisib] (partner 2 µM)
Summary of the method: as §1

Row | Cell Line | relative viability ([1]; first compound 0.08 µM) | relative viability ([1]; first compound 0.253 µM) | relative viability ([1]; first compound 0.8 µM) | relative viability ([1]; first compound 2.53 µM) | relative viability ([1]; first compound 8 µM) | relative viability ([2]; first compound 0.08 µM) | relative viability ([2]; first compound 0.253 µM) | relative viability ([2]; first compound 0.8 µM) | relative viability ([2]; first compound 2.53 µM) | relative viability ([2]; first compound 8 µM) | relative viability ([3]; first compound 0.08 µM) | relative viability ([3]; first compound 0.253 µM) | relative viability ([3]; first compound 0.8 µM) | relative viability ([3]; first compound 2.53 µM) | relative viability ([3]; first compound 8 µM) | relative viability ([4]; first compound 0.08 µM) | relative viability ([4]; first compound 0.253 µM) | relative viability ([4]; first compound 0.8 µM) | relative viability ([4]; first compound 2.53 µM) | relative viability ([4]; first compound 8 µM)
1 | HCC-366 | 0.303 | 0.252 | 0.248 | 0.157 | 0.315 | 0.648 | 0.612 | 0.641 | 0.566 | 0.601 | 0.177 | 0.179 | 0.166 | 0.111 | 0.127 | 0.397 | 0.386 | 0.42 | 0.393 | 0.344
2 | HCC-827 | 0.232 | 0.26 | 0.156 | 0.229 | 0.182 | 0.374 | 0.404 | 0.323 | 0.396 | 0.356 | 1 | 1.05 | 0.863 | 1.06 | 0.8 | 1.06 | 1.04 | 0.93 | 0.923 | 0.875
3 | HOP-62 | 0.505 | 0.566 | 0.496 | 0.693 | 0.673 | 0.7 | 0.64 | 0.677 | 0.601 | 0.629 | 0.817 | 0.7 | 0.587 | 0.943 | 0.497 | 0.995 | 1.13 | 0.93 | 1.03 | 0.973
4 | LC-2-ad | 0.842 | 0.819 | 0.812 | 0.829 | 0.867 | 0.623 | 0.582 | 0.563 | 0.526 | 0.575 | 0.453 | 0.383 | 0.442 | 0.521 | 0.231 | 0.896 | 0.86 | 0.857 | 0.848 | 0.672
5 | LCLC-97TM1 | 0.312 | 0.328 | 0.241 | 0.281 | 0.281 | 0.466 | 0.408 | 0.475 | 0.438 | 0.422 | 0.174 | 0.218 | 0.157 | 0.224 | 0.305 | 0.286 | 0.203 | 0.293 | 0.324 | 0.343
6 | LCLC-103H | 0.686 | 0.838 | 0.794 | 0.666 | 0.645 | 0.347 | 0.368 | 0.304 | 0.337 | 0.291 | 0.595 | 0.671 | 0.616 | 0.586 | 0.593 | 0.987 | 0.923 | 0.938 | 0.876 | 0.98
7 | NCI-H520 | – | – | – | – | – | 0.477 | 0.564 | 0.508 | 0.429 | 0.347 | 0.271 | 0.294 | 0.316 | 0.215 | 0.221 | 0.865 | 0.871 | 0.825 | 0.725 | 0.656
8 | NCI-H661 | – | – | – | – | – | 0.274 | 0.284 | 0.244 | 0.293 | 0.262 | 0.4 | 0.465 | 0.387 | 0.498 | 0.657 | 0.67 | 0.635 | 0.37 | 0.685 | 0.614
9 | NCI-H1299 | – | – | – | – | – | – | – | – | – | – | 0.509 | 0.854 | 0.849 | 0.6 | 0.355 | 0.953 | 1.04 | 1.05 | 1.04 | 1.02
10 | NCI-H1563 | – | – | – | – | – | 0.641 | 0.7 | 0.654 | 0.648 | 0.658 | 0.72 | 0.637 | 0.613 | 0.638 | 0.617 | 1.03 | 1.03 | 0.956 | 0.875 | 0.847
11 | NCI-H1648 | 0.638 | 0.706 | – | 0.718 | 0.606 | – | – | – | – | – | – | – | – | – | – | – | – | – | – | –
12 | NCI-H1650 | – | – | – | – | – | 0.481 | 0.55 | 0.412 | 0.49 | 0.4 | 0.591 | 0.622 | 0.531 | 0.625 | 0.54 | – | – | – | – | –
13 | NCI-H1703 | 0.128 | 0.126 | 0.119 | 0.133 | 0.0959 | – | – | – | – | – | 0.377 | – | 0.26 | 0.215 | 0.223 | 0.354 | 0.282 | 0.41 | 0.22 | 0.184
14 | NCI-H2009 | – | – | – | – | – | 0.508 | 0.484 | 0.49 | 0.416 | 0.372 | 0.792 | 0.766 | 0.795 | 0.803 | 0.541 | 1.15 | 1.11 | 1.1 | 1.04 | 1.05
15 | NCI-H2023 | – | – | – | – | – | 0.377 | 0.392 | 0.405 | 0.338 | 0.342 | 0.263 | 0.238 | 0.222 | 0.177 | 0.21 | 0.555 | 0.685 | 0.553 | 0.442 | 0.451
16 | NCI-H2228 | – | – | – | – | – | 0.403 | 0.308 | 0.312 | 0.254 | 0.357 | 0.566 | 0.411 | 0.545 | 0.395 | 0.349 | 0.452 | 0.753 | 0.859 | 0.687 | 0.588
17 | NCI-H2342 | 0.428 | 0.582 | 0.471 | 0.461 | 0.472 | 0.572 | 0.685 | 0.574 | 0.647 | 0.668 | – | – | – | – | – | – | – | – | – | –
18 | SK-LU-1 | – | – | – | – | – | 0.41 | 0.573 | 0.597 | 0.473 | 0.39 | 0.575 | 0.548 | 0.566 | 0.538 | 0.477 | 0.883 | 1.01 | 0.992 | 0.87 | 0.597
19 | SK-MES-1 | – | – | – | – | – | 0.646 | 0.597 | 0.645 | 0.612 | 0.522 | 0.301 | 0.316 | 0.368 | 0.332 | 0.249 | 0.876 | 0.883 | 0.716 | 0.851 | 0.875
20 | SW 1573 | – | – | – | – | – | 0.322 | 0.31 | 0.378 | 0.294 | 0.31 | 0.474 | 0.512 | 0.523 | 0.385 | 0.456 | 0.787 | 0.711 | 0.651 | 0.802 | 0.642
21 | UMC-11 | – | – | – | – | – | 0.332 | 0.311 | 0.309 | 0.301 | 0.253 | 0.971 | 0.82 | 0.771 | 0.776 | 0.638 | 0.972 | 0.882 | 1.12 | 0.923 | 0.968
